Test: Particle size (D90) after ethyl acetate / n-heptane anti-solvent crystallisation
Assay type: physicochemical
Method: The addition of antisolvent at different temperatures leads to formation of pirfenidone particles with different sizes; for instance: anti solvent addition at 0 to −10° C., preferably at −5±2° C. temperature forms small particles (D90: 50-100μ), at 0 to 10° C., preferably at 7±3° C. temperature forms particles of D90 at 100-150μ and at below 45° C. forms particles of D90 at 250-500μ.
(§1) Pirfenidone (83 g) was dissolved in ethyl acetate (425 mL), at 55-65° C., and then added to pre-cooled (−5±2° C.) n-Heptane (425 mL), over a period of 15-20 min, while maintaining temperature below 20° C. The suspension was stirred, at 0-5° C., for 1-2 h; filtered the product washed with chilled ethyl acetate (50 mL). The wet material was dried, at 60° C., under vacuum, for 6-8 h, to afford Pirfenidone as white colored powder. Yield: 65 g, HPLC purity 99.9%, PSD: (D90) 50-100μ.
as §1, with “Pirfenidone (81” for “Pirfenidone (83”, “pre-cooled (7±3°” for “pre-cooled (−5±2°”, “colored powder” for “colored powder.”, “Yield: 61” for “Yield: 65”, “(D90) 100-150μ.” for “(D90) 50-100μ.”
Pirfenidone (81 g) was dissolved in ethyl acetate (500 mL), at 50-55° C., and then added to pre-cooled (8±3° C.) n-Heptane (500 mL), over a period of 15-20 min, while maintaining temperature below 25° C. The suspension was stirred, at 5-10° C., for 1-2 h; filtered the product washed with chilled ethyl acetate (50 mL). The wet material was dried, at 60° C., under vacuum, for 6-8 h, to afford Pirfenidone as white colored powder Yield: 57 g, HPLC purity 99.9%, PSD: (D90) 150-250μ.
Pirfenidone (80 g) was dissolved in ethyl acetate (400 mL), at 55-65° C., and then added to n-Heptane (400 mL), over a period of 5-10 min, while maintaining temperature below 45° C. The suspension was stirred, at 25-30° C., for 1-2 h; filtered the product washed with chilled ethyl acetate (50 mL). The wet material was dried, at 60° C., under vacuum, for 6-8 h, to afford Pirfenidone as white colored powder, Yield: 55 g, HPLC purity 99.9%, PSD: (D90) 250-500μ.

Cc1ccc(=O)n(-c2ccccc2)c1 [Pirfenidone, 5-methyl-1-phenyl-2-1(H)-pyridone]
PSD: (D90) (Example 5: ethyl acetate solution, n-heptane anti-solvent at −5±2° C.): 50-100 μ
PSD: (D90) (Example 6: ethyl acetate solution, n-heptane anti-solvent at 7±3° C.): 100-150 μ
PSD: (D90) (Example 7: ethyl acetate solution, n-heptane anti-solvent at 8±3° C., temperature below 25° C.): 150-250 μ
PSD: (D90) (Example 8: ethyl acetate solution, n-heptane anti-solvent, temperature below 45° C.): 250-500 μ

Source: US11066368B2, “Process for the preparation and particle size reduction of pirfenidone” (Laurus Labs Limited, priority 2016, dated 2021)
